{
  "source": "ChEMBL document CHEMBL1201862",
  "about": "“PubChem BioAssay data set” (2004)",
  "note": "Structures can show the parent of a compound that is named as a salt. Activity calls are given as the source filed them.",
  "data": [
    {"test_system": "not listed separately", "assay": "NIH-3T3 fibroblast cytotoxicity, dose response, cytotoxicity control, cell-based, fluorescence, Alamar Blue, secondary assay (AID 2327);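 further: NIH-3T3 mouse fibroblasts cultured with fluconazole at 8 µg/mL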", "format": "functional", "conditions": "not given", "values": [
      {"smiles": "COc1ccnc(Oc2cccc(C(F)(F)F)c2)c1C(=O)N=CNOCc1ccccc1F", "EC50": "> 150 µM (inactive)"},
      {"smiles": "CCOC(=O)Cc1csc(NC(=O)CSc2nnc(-c3ccc(NS(=O)(=O)CC)cc3)o2)n1", "EC50": "> 150 µM (inactive)"},
      {"smiles": "COc1ccc(CNCCNC(=O)c2ccco2)c(OC)c1OC", "EC50": "> 160 µM (inactive)"},
      {"smiles": "CC(C)(C)c1ccc(C(=O)NNc2ccc(F)cc2F)cc1", "EC50": "32.2 µM (active)"},
      {"smiles": "Cc1ccc(C)c(NC(S)=NNC(=O)c2csc3c2CCC(C)C3)c1", "note": "(configuration not stated)", "EC50": "> 150 µM (inactive)"},
      {"smiles": "CC(=O)NNC(=S)NC(=O)C(c1ccccc1)c1ccccc1", "EC50": "> 150 µM (inactive)"}
    ]},
    {"test_system": "not listed separately", "assay": "inhibitors of firefly luciferase expression or activity, dose response, H4 neuroglioma cells, luminescence (AID 1990)", "format": "functional, cell-based", "conditions": "not given", "values": [
      {"smiles": "Nc1ccn([C@@H]2O[C@H](CO)[C@@H](O)[C@@H]2O)c(=O)n1", "note": "[CYTARABINE HYDROCHLORIDE]", "EC50": "< 100 nM (active)"}
    ]},
    {"biological_target": "T1, RNA-binding protein pos-1 (Caenorhabditis elegans, UniProt G5EF15)", "T1 sequence (G5EF15 whole entry)": "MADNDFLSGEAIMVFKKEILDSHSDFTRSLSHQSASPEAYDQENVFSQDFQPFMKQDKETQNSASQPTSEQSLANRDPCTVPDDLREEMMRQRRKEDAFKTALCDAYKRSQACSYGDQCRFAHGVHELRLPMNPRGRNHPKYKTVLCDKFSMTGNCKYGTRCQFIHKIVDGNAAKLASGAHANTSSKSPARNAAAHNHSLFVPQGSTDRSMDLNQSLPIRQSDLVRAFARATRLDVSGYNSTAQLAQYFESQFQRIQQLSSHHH", "assay": "inhibitors of POS-1/mex-3 RNA binding, dose response, biochemical, fluorescence polarization (AID 1964);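 further: purified POS-1 fused to maltose binding protein made in E. coli; potency of compounds blocking POS-1 binding to fluorescent RNA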", "conditions": "not given", "values": [
      {"smiles": "COC(=O)c1cc(C(=O)OC)cc(-n2c(C)cc(C=O)c2C)c1", "EC50": "78.7 µM (active)"},
      {"smiles": "CCOC(=O)c1cc(=O)n2nc(-c3ccc(C)cc3)nc2s1", "EC50": "> 300 µM (not active)"},
      {"smiles": "O=C(NNC(=O)c1csc(-c2cccnc2)n1)c1ccccc1", "EC50": "> 300 µM (not active)"},
      {"smiles": "CCOC(=O)c1ccc(-n2c(C)ccc2C)cc1", "EC50": "> 300 µM (not active)"},
      {"smiles": "CCOC(=O)N1CCC(NC(=O)C(Cc2ccccc2)NC(=O)C2CCCCC2)CC1", "note": "(configuration not stated)", "EC50": "> 300 µM (not active)"},
      {"smiles": "S=C(NCc1ccncc1)Nc1ccc(Cl)cc1Cl", "EC50": "> 300 µM (not active)"},
      {"smiles": "COc1ccc(/N=C/c2c(O)c3ccccc3n2C(C)=O)cc1", "EC50": "> 300 µM (inconclusive)"}
    ]},
    {"test_system": "Streptococcus sp. 'group A'", "assay": "growth inhibition of control SK(-) GAS strain, dose response, counter-screen for streptokinase expression inhibitor project, luminescence, kanamycin, BacTiterGlo, confirmation (AID 1900)", "format": "functional, organism-based", "conditions": "not given", "values": [
      {"smiles": "Cc1ccc(C(=O)NC(=S)NNC(=O)c2cccc([N+](=O)[O-])c2)cc1", "EC50": "1.53 µM (active)"},
      {"smiles": "CC(=O)NNC(=S)NC(=O)C(c1ccccc1)c1ccccc1", "EC50": "3.24 µM (active)"}
    ]},
    {"biological_target": "T2, Zinc finger protein mex-5 (Caenorhabditis elegans, UniProt Q9XUB2)", "T2 sequence (Q9XUB2 whole entry)": "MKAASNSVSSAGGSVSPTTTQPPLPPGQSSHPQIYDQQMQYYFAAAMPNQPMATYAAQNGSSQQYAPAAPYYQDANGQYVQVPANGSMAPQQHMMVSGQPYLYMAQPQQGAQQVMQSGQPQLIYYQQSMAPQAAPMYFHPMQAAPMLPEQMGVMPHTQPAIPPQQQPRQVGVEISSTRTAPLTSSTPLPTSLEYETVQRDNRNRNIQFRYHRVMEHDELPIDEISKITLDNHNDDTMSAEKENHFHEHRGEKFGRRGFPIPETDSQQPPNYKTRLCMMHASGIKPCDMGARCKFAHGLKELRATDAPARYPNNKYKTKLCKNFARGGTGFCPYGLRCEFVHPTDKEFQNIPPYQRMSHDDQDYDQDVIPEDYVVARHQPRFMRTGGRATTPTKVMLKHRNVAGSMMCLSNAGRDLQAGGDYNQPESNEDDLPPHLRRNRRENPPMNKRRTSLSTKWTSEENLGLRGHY", "assay": "MEX-5/TCR-2 RNA interaction inhibitors, dose response, biochemical, C. elegans, fluorescence polarization (AID 1960)", "conditions": "not given", "values": [
      {"smiles": "COC(=O)c1cc(C(=O)OC)cc(-n2c(C)cc(C=O)c2C)c1", "EC50": "> 300 µM (not active)"},
      {"smiles": "CCOC(=O)c1cc(=O)n2nc(-c3ccc(C)cc3)nc2s1", "EC50": "> 300 µM (not active)"},
      {"smiles": "O=C(NNC(=O)c1csc(-c2cccnc2)n1)c1ccccc1", "EC50": "> 300 µM (inconclusive)"},
      {"smiles": "CCOC(=O)c1ccc(-n2c(C)ccc2C)cc1", "EC50": "> 300 µM (not active)"},
      {"smiles": "CCOC(=O)N1CCC(NC(=O)C(Cc2ccccc2)NC(=O)C2CCCCC2)CC1", "note": "(configuration not stated)", "EC50": "> 300 µM (not active)"},
      {"smiles": "S=C(NCc1ccncc1)Nc1ccc(Cl)cc1Cl", "EC50": "> 300 µM (not active)"},
      {"smiles": "COc1ccc(/N=C/c2c(O)c3ccccc3n2C(C)=O)cc1", "EC50": "> 300 µM (inconclusive)"}
    ]},
    {"test_system": "not listed separately", "assay": "inhibitors of SNCA 5'UTR-driven reporter translation, confirmation, H4 neuroglioma cells, luminescence (AID 1988)", "format": "functional, cell-based", "conditions": "not given", "values": [
      {"smiles": "Nc1ccn([C@@H]2O[C@H](CO)[C@@H](O)[C@@H]2O)c(=O)n1", "note": "[CYTARABINE HYDROCHLORIDE]", "EC50": "< 100 nM (active)"}
    ]},
    {"biological_target": "T3, Streptokinase A (Streptococcus pyogenes serotype M1, UniProt P10520)", "T3 sequence (P10520 whole entry)": "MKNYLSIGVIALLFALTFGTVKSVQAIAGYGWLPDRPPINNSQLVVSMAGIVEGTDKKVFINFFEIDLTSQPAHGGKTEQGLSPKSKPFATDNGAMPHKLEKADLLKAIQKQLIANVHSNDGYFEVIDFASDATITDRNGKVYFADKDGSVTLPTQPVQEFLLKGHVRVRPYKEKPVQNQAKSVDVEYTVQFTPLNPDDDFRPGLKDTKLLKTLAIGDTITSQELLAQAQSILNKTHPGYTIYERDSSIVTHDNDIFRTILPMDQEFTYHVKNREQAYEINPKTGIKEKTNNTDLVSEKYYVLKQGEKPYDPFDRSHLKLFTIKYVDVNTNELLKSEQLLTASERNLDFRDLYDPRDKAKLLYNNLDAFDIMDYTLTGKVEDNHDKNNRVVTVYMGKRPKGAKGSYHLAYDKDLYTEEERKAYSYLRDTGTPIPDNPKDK", "assay": "S. pyogenes streptokinase expression inhibitors, potency, dose response, plasminogen activation absorbance, OD405 (AID 1914);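 further: secreted streptokinase activity via plasminogen activation per viability signal from cell pellet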", "format": "functional, Streptococcus pyogenes M1 GAS", "conditions": "not given", "values": [
      {"smiles": "Cc1ccc(C(=O)NC(=S)NNC(=O)c2cccc([N+](=O)[O-])c2)cc1", "EC50": "> 150 µM (not active)"},
      {"smiles": "CC(=O)NNC(=S)NC(=O)C(c1ccccc1)c1ccccc1", "EC50": "> 150 µM (not active)"}
    ]},
    {"test_system": "not listed separately", "assay": "C. albicans growth with fluconazole, confirmation, fluorescence, retest (AID 2467)", "format": "functional, cell-based", "conditions": "not given", "values": [
      {"smiles": "COc1ccnc(Oc2cccc(C(F)(F)F)c2)c1C(=O)N=CNOCc1ccccc1F", "EC50": "> 38 µM (not active)"},
      {"smiles": "CCOC(=O)Cc1csc(NC(=O)CSc2nnc(-c3ccc(NS(=O)(=O)CC)cc3)o2)n1", "EC50": "> 38 µM (not active)"},
      {"smiles": "COc1ccc(CNCCNC(=O)c2ccco2)c(OC)c1OC", "EC50": "> 38 µM (not active)"},
      {"smiles": "CC(C)(C)c1ccc(C(=O)NNc2ccc(F)cc2F)cc1", "EC50": "> 38 µM (not active)"},
      {"smiles": "Cc1ccc(C)c(NC(S)=NNC(=O)c2csc3c2CCC(C)C3)c1", "note": "(configuration not stated)", "EC50": "3.32 µM (active)"},
      {"smiles": "CC(=O)NNC(=S)NC(=O)C(c1ccccc1)c1ccccc1", "EC50": "1.52 µM (active)"}
    ]},
    {"test_system": "Streptococcus", "assay": "Group A Streptococcus viability loss, dose response, counter-screen for streptokinase expression inhibitor project, luminescence, BacTiterGlo (AID 1915);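 further: potency for reduction of bacterial viability or growth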", "format": "functional, organism-based", "conditions": "not given", "values": [
      {"smiles": "Cc1ccc(C(=O)NC(=S)NNC(=O)c2cccc([N+](=O)[O-])c2)cc1", "EC50": "21.7 µM (active)"},
      {"smiles": "CC(=O)NNC(=S)NC(=O)C(c1ccccc1)c1ccccc1", "EC50": "10.4 µM (active)"}
    ]},
    {"biological_target": "Cytochrome P450 2C19 (Homo sapiens, UniProt P33261)", "sequence (P33261 whole entry)": "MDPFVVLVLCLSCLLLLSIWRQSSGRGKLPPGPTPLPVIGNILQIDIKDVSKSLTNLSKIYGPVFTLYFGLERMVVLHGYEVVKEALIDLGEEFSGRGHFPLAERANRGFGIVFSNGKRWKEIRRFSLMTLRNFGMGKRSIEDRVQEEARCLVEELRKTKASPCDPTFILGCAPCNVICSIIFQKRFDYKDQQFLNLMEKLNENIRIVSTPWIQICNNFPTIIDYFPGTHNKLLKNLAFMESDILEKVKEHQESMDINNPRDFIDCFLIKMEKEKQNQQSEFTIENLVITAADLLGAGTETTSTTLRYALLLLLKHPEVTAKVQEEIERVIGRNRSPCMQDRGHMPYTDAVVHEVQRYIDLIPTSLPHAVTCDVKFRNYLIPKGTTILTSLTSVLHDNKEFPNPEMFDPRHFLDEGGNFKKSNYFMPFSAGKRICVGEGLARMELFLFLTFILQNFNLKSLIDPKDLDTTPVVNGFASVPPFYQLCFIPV", "assay": "Cytochrome panel assay with activity outcomes. Panel member name: p450-cyp2c19 Compounds with AC50 equal or less than 10 uM are considered active", "format": "functional", "conditions": "not given", "values": [
      {"smiles": "CC(CP(=O)(O)O)NC(=O)Cc1ccccc1", "note": "(configuration not stated)", "AC50": "inconclusive"}
    ]},
    {"biological_target": "T4, Corticotropin-releasing factor receptor 2/Corticotropin-releasing factor-binding protein (Homo sapiens, UniProt P24387+Q13324)", "T4 sequence (Q13324 whole entry)": "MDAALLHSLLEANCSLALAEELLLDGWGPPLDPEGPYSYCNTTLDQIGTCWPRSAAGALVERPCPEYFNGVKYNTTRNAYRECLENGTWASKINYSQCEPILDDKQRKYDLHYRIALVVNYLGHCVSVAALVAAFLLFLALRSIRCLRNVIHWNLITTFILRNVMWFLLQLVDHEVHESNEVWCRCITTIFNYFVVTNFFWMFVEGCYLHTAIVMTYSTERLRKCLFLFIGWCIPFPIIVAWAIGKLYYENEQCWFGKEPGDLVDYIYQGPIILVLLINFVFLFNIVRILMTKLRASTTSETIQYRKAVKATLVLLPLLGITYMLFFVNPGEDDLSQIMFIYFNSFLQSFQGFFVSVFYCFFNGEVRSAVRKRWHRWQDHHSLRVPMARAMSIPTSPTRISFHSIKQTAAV", "T4 sequence (P24387 whole entry)": "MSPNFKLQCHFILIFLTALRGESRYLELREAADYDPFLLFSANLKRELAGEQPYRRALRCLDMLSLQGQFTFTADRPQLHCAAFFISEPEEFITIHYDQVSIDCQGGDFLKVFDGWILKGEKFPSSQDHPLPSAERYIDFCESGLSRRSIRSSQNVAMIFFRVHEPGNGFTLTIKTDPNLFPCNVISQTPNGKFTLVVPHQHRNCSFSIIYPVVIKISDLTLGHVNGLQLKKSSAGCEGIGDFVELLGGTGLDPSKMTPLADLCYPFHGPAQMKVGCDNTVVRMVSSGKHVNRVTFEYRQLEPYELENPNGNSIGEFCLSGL", "assay": "activators of CRF receptor 2 with binding protein – uHTS hits, confirmation (AID 602473)", "format": "functional", "conditions": "read-out: EC50_Mean", "values": [
      {"smiles": "Cc1ccc(C(=O)NC(=S)NNC(=O)c2cccc([N+](=O)[O-])c2)cc1", "EC50": "2.89 µM (active)"},
      {"smiles": "COc1ccc(/N=C/c2c(O)c3ccccc3n2C(C)=O)cc1", "EC50": "6.35 µM (active)"}
    ]}
  ]
}
